The test concerns the target Protein arginine methyltransferase 5 (PRMT5) (Homo sapiens, UniProt O14744). As to the kind of experiment: AlphaLISA methyltransferase assay, […] concentrations, PRMT5 from BPS Bioscience (Cat. No. […]). The format is biochemical.

The values that follow come from PMC9656811, “Structure-Based Discovery and Biological Assays of a Novel PRMT5 Inhibitor for Non-Small Cell Lung Cancer” (Molecules, 2022).

Each structure is given as a SMILES string.

Chain of Protein arginine methyltransferase 5 (PRMT5) (O14744 2-637): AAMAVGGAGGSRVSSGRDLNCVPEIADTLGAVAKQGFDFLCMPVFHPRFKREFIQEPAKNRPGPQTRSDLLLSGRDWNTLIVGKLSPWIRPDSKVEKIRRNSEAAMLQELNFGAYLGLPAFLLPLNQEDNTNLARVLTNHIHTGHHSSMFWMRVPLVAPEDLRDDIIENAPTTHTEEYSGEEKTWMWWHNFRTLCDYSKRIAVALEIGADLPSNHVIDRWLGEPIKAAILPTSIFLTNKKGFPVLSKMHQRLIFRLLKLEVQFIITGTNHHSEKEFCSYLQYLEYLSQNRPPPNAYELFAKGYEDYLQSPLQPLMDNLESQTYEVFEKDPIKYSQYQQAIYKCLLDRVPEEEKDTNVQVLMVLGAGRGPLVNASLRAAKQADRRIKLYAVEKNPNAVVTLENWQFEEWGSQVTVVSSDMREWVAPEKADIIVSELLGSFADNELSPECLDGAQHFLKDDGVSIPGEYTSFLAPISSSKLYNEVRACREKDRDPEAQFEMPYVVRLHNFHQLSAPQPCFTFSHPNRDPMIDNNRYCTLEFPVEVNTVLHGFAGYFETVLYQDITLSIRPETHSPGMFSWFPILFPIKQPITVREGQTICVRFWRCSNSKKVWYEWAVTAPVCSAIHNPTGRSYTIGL
Chain of Protein arginine methyltransferase 5 (PRMT5) (Q9BQA1 whole entry partner): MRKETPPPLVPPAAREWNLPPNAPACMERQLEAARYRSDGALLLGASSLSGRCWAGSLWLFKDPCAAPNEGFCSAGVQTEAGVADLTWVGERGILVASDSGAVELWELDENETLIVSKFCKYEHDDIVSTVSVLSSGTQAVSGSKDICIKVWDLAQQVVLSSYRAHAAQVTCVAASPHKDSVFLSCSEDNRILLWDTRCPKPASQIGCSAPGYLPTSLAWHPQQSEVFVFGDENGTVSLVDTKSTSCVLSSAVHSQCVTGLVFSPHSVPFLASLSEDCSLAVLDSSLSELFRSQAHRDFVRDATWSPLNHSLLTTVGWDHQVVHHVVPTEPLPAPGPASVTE

Regarding `O=C1c2ccccc2C(=O)c2c(NCCCN(CCO)CCO)cccc21` [3039-0164], the IC50 (commonly the concentration at which inhibition is half-maximal) is 63 µM.
